According to patent US20060178352A1, “Use of androgens to reduce the likelihood of acquiring or to treat skin aging” (Endorecherche, Inc., priority 2004, published 2006):
Like-named read-outs stand apart in the source and are kept apart here.

Key:
mouse dorsal skin = format: in vivo; conditions: for Effect on hypodermal thickness: GDX animals of both sexes, p<0.01; for Dermis % (proportion of skin layer) / Epidermis % (proportion of skin layer) / Hypodermis % (proportion of skin layer) / Dermis T (thickness) / Epidermis T (thickness) / Hypodermis T (thickness): 3 weeks treatment; for Dermis T (thickness) / Epidermis T (thickness) / Hypodermis T (thickness): mean ± SEM
Procedure: (§1) Fifty six adult male and female C57BL6 mice 13-15 weeks of age were obtained from Harlan Laboratory (Indiana, USA). […] Animals of intact and GDX control groups were treated with the vehicle alone during the same period. Six hours after the last treatment, all animals were sacrificed.
Since DHT is known to be poorly active by the oral route, it was injected subcutaneously. To determine the DHT dose, a preliminary dose-range study was performed (see supplementary online material, online Table S1).
After shaving the long hair, the dorsal skin was excised, flattened and immediately immersed in 10% buffered formalin. A sample was embedded in paraffin blocks from which 4 μm sections were cut and routinely stained.
Under the light microscope, measurements were performed using the IMAGE-PRO PLUS (Media Cybernetics, USA). Twenty-five readings were scored from each skin layer of each animal. The epidermal thickness was measured from stratum basale to stratum granulosum (excluding stratum corneum), whereas the dermal thickness was the distance between the epidermis and the hypodermis. Finally, the hypodermal thickness was measured as the distance between the dermis and the panniculus carnosus.

[1] = aged individuals, particularly women >70 years; cited from earlier work
[2] = men and women 60-79 years, oral 50 mg once daily, cited from earlier work
androgen receptor (AR) = test: Immunohistochemistry of androgen receptor in epidermis of mouse dorsal skin; format: in vivo; conditions: GDX males and females, 3 weeks treatment
Procedure: as §1

[3] = GDX females, versus GDX control

| Compound | Effect on hypodermal thickness (mouse dorsal skin) | Dermis % (proportion of skin layer) (mouse dorsal skin; GDX female mice) [%] | Epidermis % (proportion of skin layer) (mouse dorsal skin; GDX female mice) [%] | Hypodermis % (proportion of skin layer) (mouse dorsal skin; GDX female mice) [%] | Dermis T (thickness) (mouse dorsal skin; GDX female mice) | Epidermis T (thickness) (mouse dorsal skin; GDX female mice) | Hypodermis T (thickness) (mouse dorsal skin; GDX female mice) | Effect on dermal thickness (in words) (mouse dorsal skin; GDX females) | Increase in dermal thickness (mouse dorsal skin; [3]) [%] | Dermis % (proportion of skin layer) (mouse dorsal skin; GDX male mice) [%] | Epidermis % (proportion of skin layer) (mouse dorsal skin; GDX male mice) [%] | Hypodermis % (proportion of skin layer) (mouse dorsal skin; GDX male mice) [%] | Dermis T (thickness) (mouse dorsal skin; GDX male mice) [μm] | Epidermis T (thickness) (mouse dorsal skin; GDX male mice) [μm] | Hypodermis T (thickness) (mouse dorsal skin; GDX male mice) [μm] | further results |
| --- | --- | --- | --- | --- | --- | --- | --- | --- | --- | --- | --- | --- | --- | --- | --- | --- |
| C[C@]12CCC(=O)C[C@@H]1CC[C@@H]1[C@@H]2CC[C@]2(C)[C@@H](O)CC[C@@H]12 [DHT, 5α-androstane-17β-ol-3-one] | markedly decreased | 79.5 | 2.5 | 18 | 307 ± 13.3^++ μm | 9.6 ± 0.2 μm | 70 ± 4.6^++ μm | increase | 47 | 93 | 2.1 | 4.9 | 451 ± 24.1 | 10 ± 0.2 | 24 ± 1.9 |  |
| C[C@]12CC[C@H](O)CC1=CC[C@@H]1[C@@H]2CC[C@]2(C)C(=O)CC[C@@H]12 [DHEA, dehydroepiandrosterone] | markedly decreased | 75.8 | 3.2 | 21 | 249 ± 11.8^+ μm | 10.5 ± 0.3^+ μm | 69 ± 4.5^++ μm | increase | 19 | 92.8 | 1.7 | 5.5 | 486 ± 28.7 | 8.9 ± 0.3 | 29 ± 6.2 | Sebum production [1]: increase; Increase in epidermal thickness (mouse dorsal skin; GDX females, versus GDX control, p<0.05): 13%; Facial skin pigmentation (yellowness) ([2]; 1 year): significantly decreased; Other components of skin colour (lightness and redness) ([2]; 1 year): remained stable; Skin surface hydratation ([2]; after 12 months): significantly increased |
| C[C@]12CC[C@@H]3c4ccc(O)cc4CC[C@H]3[C@@H]1CC[C@@H]2O [E2] | markedly decreased |  |  |  |  |  |  |  |  |  |  |  |  |  |  | AR labeling / expression in epidermal nuclei (androgen receptor (AR)): weak AR labeling |
